Reference: patent US20070161691A1, “Modified-protein formation inhibitor” (TOKAI UNIVERSITY, priority 2003, published 2007)

System: pentosidine formation
Assay: AGEs (pentosidine) formation inhibiting effect in plasma from dialysis patients
Format: biochemical, human
Experimental: Before dialysis, blood samples were obtained from non-diabetic volunteer dialysis patients with renal failure, and fresh heparinized plasma samples were prepared therefrom Pooled plasma obtained from several patients (n=3˜5) was served to the test. 4-(5-phenyltetrazol-1-ylmethyl)-morpholine (Compound 1), 5-methyl-1-(5-phenyltetrazol-1-ylmethyl)-3a,6a-dihydro-1H-pyrrolo[3,4-d][1,2,3]triazole-4,6-dione (Compound 2) or (5-phenyltetrazol-1-yl)methanol (Compound 3) adjusted to a designed concentration ([…]), in DMSO solution (100 μl), was added to the pooled plasma (900 μl) and incubated at 37° C. for 7 days in the presence of air. Then, the amount of pentosidine was measured to estimate the suppressive effect on the glycation of protein.
Measurement of the amount of pentosidine was made as follows: to each incubated sample (50 μL) was added an equal volume of 10% trichloroacetic acid, followed by centrifugation at 5000 g for 5 minutes; after removal of the supernatant, the pellet was washed by 5% trichloroacetic acid (300 μL); the pellet was dried under reduced pressure and then subjected to hydrolysis in 6N HCI solution (100 μL) at 110° C. under nitrogen atmosphere for 16 hours; to the hydrolysate, 5N NaOH (100 μL) and 0.5 M phosphate buffer (pH 7.4) (200 μL) were added, followed by filtration through a porefilter with a pore size of 0.5 μm and dilution with PBS. The concentration of free pentosidine was determined by reversed-phase HPLC using a fluorescence detector (RF-10A, Shimazu Seisakusho) (Miyata, T. et al.: Proc. Natl. Acad. Sci. USA, 93, 2353-2358, 1996). The effluent was monitored at 335/385 nm of excitation/emission wavelength. Synthetic pentosidine was used as the standard. The detection limit of pentosidine was 0.1 pmol/mg protein.
The inhibiting effect was estimated by comparing with positive control (aminoguanidine and pyridoxamine (Sigma)) reacted in the same manner as 4-(5-phenyltetrazol-1-yl-methyl)-morpholine (Compound 1), 5-methyl-1-(5-phenyltetrazol-1-ylmethyl)-3a,6a-dihydro-1H-pyrrolo[3,4-d][1,2,3]triazole-4,6-dione (Compound 2) and (5-phenyltetrazol-1-yl)methanol (Compound 3).

c1ccc(-c2nnnn2CN2CCOCC2)cc1 [Compound 1, 4-(5-phenyltetrazol-1-ylmethyl)-morpholine]
Pentosidine formation (5 mM, plasma from dialysis patients, 37° C., 7 days, DMSO negative control 2.960): 0.367 nmol/mL
pentosidine formation suppression (plasma from the patients with dialysis): suppressed remarkably
